Laboratory results from PMC4109680, “Identification and Preclinical Pharmacology of the γ-Secretase Modulator BMS-869780” (International Journal of Alzheimer's Disease, 2014).

Legend:
Assay type in all cases: in vivo
[1] = Pharmacokinetics in male Sprague-Dawley rats; conditions: plasma, Rat
Experimental: (§1) Male Sprague-Dawley (SD) rats (300–350 g) were fasted overnight, and three per group received BMS-869780 either as an intravenous (IV) infusion in PEG400 : ethanol (90 : 10 w/w) at 1 mg/kg over 5 min via the jugular vein or as nanosuspension (d50 ca. 300 nm) by oral gavage at 5 mg/kg in Povidone K-30 : sodium lauryl sulfate : water (2.5 : 0.12 : 97.38 w/w/w/w). For the IV infusion, serial blood samples were obtained before dose and at 0.17, 0.25, 0.5, 0.75, 1, 2, 4, 6, 8, and 24 hours after dose. For the PO nanosuspension, serial blood samples were obtained before dose and at 0.25, 0.5, 0.75, 1, 2, 4, 6, 8, and 24 h after dose. Blood samples, ~0.3 mL, for all studies were collected from the jugular vein into K3EDTA-containing tubes and then centrifuged at 4°C (1500–2000 ×g) to obtain plasma, which was stored at −20°C until analysis by LC/MS/MS. In male beagle dogs, the PK of BMS-869780 was evaluated in a cross-over study design with a one-week washout between treatments. Dogs were fasted overnight, and three animals (9.5 to 10.7 kg) received BMS-869780 by IV infusion at 1 mg/kg over 5 minutes in PEG400 : ethanol (90 : 10 w/w) or as nanosuspension (d50 ca. 300 nm) by oral gavage at 5 mg/kg in Povidone K-30 : sodium lauryl sulfate : water (2.5 : 0.12 : 97.38 w/w/w/w). Serial blood samples (~0.3 mL) were collected from a saphenous vein into K3EDTA-containing tubes before dose and at 0.083, 0.17, 0.25, 0.5, 0.75, 1, 2, 4, 6, 8, and 24 hours after IV dose, and 0.25, 0.5, 0.75, 1, 2, 4, 6, 8, and 24 hours after oral dose, followed by centrifugation at 4°C (1500 to 2000 ×g) to obtain plasma. Samples were stored at −20°C until analysis of BMS-869780 levels by LC-MS/MS. In male cynomolgus monkeys, the PK of BMS-869780 was evaluated in a cross-over study design with a 1-week washout between treatments. Following an overnight fast, three animals (4.5 to 8 kg) received BMS-869780 by IV infusion via a femoral vein at 1 mg/kg over 10 minutes in PEG400 : ethanol (90 : 10), or by oral gavage at 5 mg/kg in Povidone K-30 : sodium lauryl sulfate : water (2.5 : 0.12 : 97.38). Serial blood samples, ~0.3 mL, were collected from a femoral artery into K3EDTA-containing tubes before dose and at 0.083, 0.17, 0.25, 0.5, 0.75, 1, 2, 4, 6, 8, and 24 hours after IV dose, and 0.25, 0.5, 0.75, 1, 2, 4, 6, 8, and 24 hours after oral dose, followed by centrifugation at 4°C (1500 to 2000 ×g) to obtain plasma. Samples were stored at −20°C until analysis of BMS-869780 levels by LC-MS/MS. The PK parameters of BMS-869780 were obtained by noncompartmental analysis of plasma concentration versus time data (WinNonlin software, Version 5.0; Pharsight Corporation, Mountain View, CA). The peak concentration (C max) and time for C max (T max) were recorded directly from experimental observations. The area under the curve from time zero to the last sampling time (AUC^0-T) and the area under the curve from time zero to infinity (AUC^INF) were calculated using a combination of linear and log trapezoidal summations. The total plasma clearance (CLTp), steady-state volume of distribution (Vss), apparent elimination half-life (T 1/2), and mean residence time (MRT) were estimated after IV administration. The absolute oral bioavailability (F) was estimated as the ratio of dose-normalized AUC values following oral and IV doses.
(§2) Figure 9 Pharmacokinetics (PK) of BMS-869780 across species for prediction of human PK. Rats, dogs, and cynomolgus monkeys were dosed with BMS-869780 intravenously (IV ▲) at 1 mg/kg or oral nanosuspension (PO ●) at 5 mg/kg. Plasma concentrations of BMS-869780 were determined for up to 24 hours after the dose. (a) Rat. (b) Dog. (c) Cynomolgus monkey.

[2] = Pharmacokinetics in male beagle dogs; conditions: plasma, Dog
Experimental: as §1, §2

[3] = Pharmacokinetics in male cynomolgus monkeys; conditions: cynomolgus monkey, plasma
Experimental: as §1, §2

## COc1cc(Nc2nc3n(n2)CCCC[C@H]3c2ccc(F)cc2)ccc1-n1cnc(Cl)c1 [BMS-869780]
[1]; IV 1 mg/kg
  AUC(0-t): 1.48 ± 0.121 µM·h
  MRT: 1 ± 0.2 h
  clearance: 24.3 ± 1.7 mL/min/kg
  half-life: 2 ± 0.3 h
[1]; IV 1 mg/kg, read-out: Vss
  Vd: 1.8 ± 0.5 L/kg
[1]; PO suspension 5 mg/kg
  AUC(0-t): 4 ± 0.964 µM·h
  Cmax: 674 ± 227 nM
  Tmax: 3.3 ± 1.2 h
  bioavailability: 54%
[2]; IV 1 mg/kg
  AUC(0-t): 6.64 ± 2.26 µM·h
  MRT: 6.6 ± 2 h
  clearance: 5.7 ± 1.7 mL/min/kg
  half-life: 5.2 ± 1.4 h
[2]; IV 1 mg/kg, read-out: Vss
  Vd: 2.2 ± 0.8 L/kg
[2]; PO suspension 5 mg/kg
  AUC(0-t): 4.55 ± 2.16 µM·h
  Cmax: 487 ± 155 nM
  Tmax: 1.7 ± 0.6 h
  bioavailability: 13%
[3]; IV 1 mg/kg
  AUC(0-t): 2.63 ± 0.926 µM·h
  MRT: 3.8 ± 0.7 h
  clearance: 15.2 ± 5.9 mL/min/kg
  half-life: 4 ± 0.5 h
[3]; IV 1 mg/kg, read-out: Vss
  Vd: 3.7 ± 1.3 L/kg
[3]; PO suspension 5 mg/kg
  AUC(0-t): 2.03 ± 1.04 µM·h
  Cmax: 219 ± 94 nM
  Tmax: 2 h
  bioavailability: 16%
